Experimental data reported in PubChem BioAssay (NCI).
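Values below derive from 48-hour exposures of cells grown in 96-well plates, with endpoints linearly interpolated between the two concentrations bracketing the appropriate inhibition level. At the GI50, growth is halved. TGI denotes the concentration required for complete inhibition of growth.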

Assays:
Test in all cases: DTP human tumour cell line panel, 48 h
ACHN renal = system: ACHN renal
CCRF-CEM leukemia = system: CCRF-CEM leukemia
EKVX NSCLC = system: EKVX NSCLC
HT29 colon = system: HT29 colon
M14 melanoma = system: M14 melanoma
NCI-H23 lung = system: NCI-H23 lung
OVCAR-5 ovarian = system: OVCAR-5 ovarian
SF-268 CNS = system: SF-268 CNS
SF-295 CNS = system: SF-295 CNS
SK-MEL-5 melanoma = system: SK-MEL-5 melanoma

Row | Structure (SMILES) | TGI (ACHN renal) [µM] | TGI (CCRF-CEM leukemia) [µM] | TGI (EKVX NSCLC) [µM] | TGI (HT29 colon) [µM] | TGI (M14 melanoma) [µM] | TGI (NCI-H23 lung) [µM] | TGI (OVCAR-5 ovarian) [µM] | TGI (SF-268 CNS) [µM] | TGI (SF-295 CNS) [µM] | TGI (SK-MEL-5 melanoma) [µM] | GI50 (ACHN renal) [µM] | GI50 (CCRF-CEM leukemia) [µM] | GI50 (EKVX NSCLC) [µM] | GI50 (HT29 colon) [µM] | GI50 (M14 melanoma) [µM] | GI50 (NCI-H23 lung) [µM] | GI50 (OVCAR-5 ovarian) [µM] | GI50 (SF-268 CNS) [µM] | GI50 (SF-295 CNS) [µM] | GI50 (SK-MEL-5 melanoma) [µM]
1 | CCOC(=O)/C(=C\c1ccc[nH]1)C(=O)c1ccccc1 | > 100 | > 100 | > 100 | > 100 | > 100 | > 100 | > 100 | > 100 | > 100 | > 100 | – | – | – | – | – | – | – | – | – | –
2 | COc1ccc2c(c1)C1(C(=O)N2)C(C#N)=C(c2ccccc2)Nc2c1c(-c1ccccc1)nn2-c1ccccc1 (stereo not given) | 19.4 | 10.4 | 22.2 | 5.82 | 7.32 | 7.51 | 19.8 | 17.9 | 21.1 | 6.62 | 6.16 | 2.9 | 4.44 | 2.34 | 2.44 | 2.51 | 5.46 | 4.9 | 8.86 | 2.4
3 | N#CC1C2CCC3(CC2CCN1C(=O)c1ccccc1)OCCO3 (stereo not given) | > 100 | > 100 | > 100 | > 100 | > 100 | > 100 | > 100 | > 100 | > 100 | > 100 | – | – | – | – | – | – | – | – | – | –
4 | COc1ccc2c(c1)/C(=N/OC(C)=O)c1c-2c(=O)[nH]c2ccccc12 | 28.2 | 23.6 | 21.6 | 32.8 | 27.4 | 16.2 | 24.5 | > 100 | 48 | 19.4 | 14.2 | 4.09 | 6.38 | 15.6 | 13.2 | 2.34 | 11.5 | 25.1 | 18.1 | 5.79
5 | NC1CCC(N[C@@H]2C[C@H]2c2ccccc2)CC1 (stereo not given in full) | > 100 | > 100 | > 100 | > 100 | > 100 | > 100 | > 100 | > 100 | > 100 | > 100 | > 100 | 82.8 | > 100 | 40.1 | > 100 | > 100 | > 100 | > 100 | > 100 | > 100
6 | N#CC1CC2(C(=O)C1=O)c1ccccc1-c1ccccc12 (stereo not given) | > 100 | > 100 | > 100 | > 100 | > 100 | > 100 | > 100 | > 100 | > 100 | > 100 | – | – | – | – | – | – | – | – | – | –
7 | N#C/C(=C\c1ccc(Br)cc1)n1nnc2ccccc21 | 2.01 | 16.6 | 7.48 | 2.25 | 3.44 | 4.2 | 3.26 | 9.24 | 8.9 | 2.32 | 0.521 | 0.357 | 1.41 | 0.411 | 0.386 | 1.44 | 1.13 | 2.62 | 1.18 | 0.999
8 | COC1=C(Br)C(=O)C2=C(C1=O)C1C3=C(C(=O)C=CC3=O)C2c2ccccc21 (stereo not given) | 34.5 | > 100 | 22.2 | > 100 | 80.4 | 48.5 | 98.6 | 59.6 | 48.9 | 48.9 | 14.8 | 3.16 | 5.81 | 31.9 | 33.4 | 17.3 | 22.3 | 18.2 | 24.1 | 16
9 | COc1cc2c(c(OC)c1OC)-c1ccc(OC)c(=O)cc1[C@@H](N(C)C=O)CC2 | > 100 | > 100 | > 100 | > 100 | > 65.6 | > 100 | > 100 | > 100 | 0.0365 | 0.0401 | – | – | – | – | – | – | – | – | – | –
10 | CC(=O)/C=C/c1ccc(C)cc1 | > 100 | > 100 | > 100 | > 100 | > 100 | > 100 | > 100 | > 100 | > 100 | > 100 | – | – | – | – | – | – | – | – | – | –
11 | COc1cc(/C=C2\C(=O)Nc3cccc(Cl)c32)cc(OC)c1OC | > 100 | 0.527 | > 100 | > 100 | > 100 | > 100 | > 100 | > 100 | > 100 | > 100 | 53.2 | 0.0529 | > 100 | > 100 | > 100 | > 100 | 46.4 | > 100 | > 100 | > 100
12 | C/C(=N\N=C(N)N)C(CN(C)C)C(c1ccccc1)c1c(O)c2ccccc2oc1=O (stereo not given) | > 100 | > 100 | > 100 | > 100 | > 100 | > 100 | > 100 | > 100 | > 100 | > 100 | – | – | – | – | – | – | – | – | – | –
13 | COc1cc2c(cc1OCCCCOc1ccc(-c3nc4ccccc4s3)cc1)N=C[C@@H]1CCCN1C2=O | 2.59 | 2.38 | 6.39 | 15.8 | 2.39 | 3.56 | 3.86 | 3.58 | 8.81 | 1.85 | 0.742 | 0.456 | 2.56 | 0.819 | 0.908 | 1.15 | 0.861 | 0.998 | 1.22 | 0.667
14 | NS(=O)(=O)c1ccc(NC(=O)c2cccc3cc4ccccc4nc23)cc1 | > 100 | > 100 | > 100 | > 100 | > 100 | > 100 | > 100 | > 100 | > 100 | > 100 | – | – | – | – | – | – | – | – | – | –
15 | O=C(/C=C/c1ccccc1Cl)c1ccc(Cl)cc1Cl | 32 | 17.4 | 32.9 | 28 | 32 | 37.9 | 30.8 | 31.3 | 36.3 | 28.6 | – | – | – | – | – | – | – | – | – | –
